{"source": "patent US20100317672A1", "about": "“Monomaleate Monohydrate Salt of a 5HT1A Receptor Antagonist” (GLAXO GROUP LIMITED, priority 2008, published 2010)", "key": {"[1]": {"assay": "solubility of the free base (stated in words, no method)", "assay_type": "physicochemical", "details": "said to be therefore not readily bioavailable"}, "[2]": {"molecular_target": "T1, 5-HT1A receptor (Homo sapiens, UniProt P08908)", "T1 sequence (P08908 1-422)": "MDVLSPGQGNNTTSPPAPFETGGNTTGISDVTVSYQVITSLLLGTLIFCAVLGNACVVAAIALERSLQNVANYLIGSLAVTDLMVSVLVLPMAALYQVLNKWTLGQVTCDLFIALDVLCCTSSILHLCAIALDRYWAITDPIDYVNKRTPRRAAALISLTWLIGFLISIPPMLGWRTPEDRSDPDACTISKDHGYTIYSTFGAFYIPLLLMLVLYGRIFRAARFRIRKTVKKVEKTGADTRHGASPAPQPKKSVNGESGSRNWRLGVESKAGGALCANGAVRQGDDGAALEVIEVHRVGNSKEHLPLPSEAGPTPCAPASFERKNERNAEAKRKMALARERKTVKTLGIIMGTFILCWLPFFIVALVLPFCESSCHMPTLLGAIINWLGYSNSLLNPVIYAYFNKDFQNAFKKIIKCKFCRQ", "assay": "antagonism of the 5-HT1A receptor (stated in words, no method)", "assay_type": "biochemical"}, "[3]": {"molecular_target": "5-HT1B receptor (Homo sapiens, UniProt P28222)", "sequence (P28222 whole entry)": "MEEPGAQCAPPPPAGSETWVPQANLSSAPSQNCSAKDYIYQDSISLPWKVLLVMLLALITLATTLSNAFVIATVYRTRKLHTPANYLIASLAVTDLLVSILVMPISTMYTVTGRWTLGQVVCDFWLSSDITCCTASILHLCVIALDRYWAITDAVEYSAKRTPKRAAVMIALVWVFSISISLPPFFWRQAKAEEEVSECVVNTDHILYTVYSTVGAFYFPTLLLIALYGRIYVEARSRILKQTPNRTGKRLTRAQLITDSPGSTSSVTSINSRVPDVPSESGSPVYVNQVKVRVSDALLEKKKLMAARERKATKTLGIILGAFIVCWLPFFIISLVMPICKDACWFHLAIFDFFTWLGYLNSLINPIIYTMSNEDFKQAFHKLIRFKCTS", "assay": "antagonism of the 5-HT1B receptor, selectivity comparison (stated in words, no method)", "assay_type": "biochemical", "details": "better antagonist of 5-HT1A than of 5-HT1B"}, "[4]": {"assay": "hygroscopicity of the dihydrochloride salt (stated in words, no method)", "assay_type": "physicochemical", "details": "shows variable stoichiometry"}}, "note": "Counter-ions that a name gives are not always drawn.", "data": [{"smiles": "Cc1ccc2c(N3CCN(CCc4c(C)ccc5c4CCc4c(C(N)=O)ncn4-5)CC3)cccc2n1", "note": "[free base, 7-methyl-6-{2-[4-(2-methyl-5-quinolinyl)-1-piperazinyl]ethyl}-4,5-dihydroimidazo[1,5-a]quinoline-3-carboxamide]", "values": [{"measurement": "solubility", "setting": "[1]", "result": "insoluble"}]}, {"smiles": "Cc1ccc2c(N3CCN(CCc4c(C)ccc5c4CCc4c(C(N)=O)ncn4-5)CC3)cccc2n1.O.O=C(O)/C=C\\C(=O)O", "note": "[salt of the invention, 7-methyl-6-{2-[4-(2-methyl-5-quinolinyl)-1-piperazinyl]ethyl}-4,5-dihydroimidazo[1,5-a]quinoline-3-carboxamide monomaleate monohydrate]", "values": [{"measurement": "antagonist of the 5-HT1A receptor", "setting": "[2]", "result": "effective antagonist"}, {"measurement": "selectivity for the 5-HT1A receptor over the 5-HT1B receptor", "setting": "[3]", "result": "high selectivity"}]}, {"smiles": "Cc1ccc2c(N3CCN(CCc4c(C)ccc5c4CCc4c(C(N)=O)ncn4-5)CC3)cccc2n1", "note": "[dihydrochloride salt, 7-methyl-6-{2-[4-(2-methyl-5-quinolinyl)-1-piperazinyl]ethyl}-4,5-dihydroimidazo[1,5-a]quinoline-3-carboxamide]", "values": [{"measurement": "hygroscopicity", "setting": "[4]", "result": "hygroscopic"}]}]}
